In patent US8633315B2, “Substituted hydroxyethyl amine compounds as beta-secretase modulators and methods of use” (Amgen Inc., priority 2007, dated 2014):
pIC50: −log10 of the molar value.

Legend:
BACE1 = BACE1 (Homo sapiens, UniProt P56817); assay: In vitro enzymatic BACE FRET (fluorescence resonance energy transfer) assay; type: biochemical
Outline: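 Cleavage of a quenched peptide FRET substrate (50 nM) in 0.05 M acetate pH 4.2, 10% DMSO, 100 uM genapol, 1 h incubation. Reaction stopped by Tris neutralization; fluorescence read at excitation 488 nm / […].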

[1] = system: Cells stably expressing Amyloid Precursor Protein (APP); assay: In vitro BACE cell-based assay (HEK cell assay): Aβ40 in conditioned medium by sandwich ELISA; conditions: Aβ40 in conditioned medium after 24 h incubation
Outline: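 APP-stably-expressing cells were grown 24 h in DMEM/10% FBS, then treated for 24 h with 10-point doses starting at 100 μM or 10 μM, at 0.1% DMSO final. Aβ40 in conditioned medium was measured by sandwich ELISA (pAb40 capture, biotinylated 6E10 detection, europium time-resolved fluorescence); IC50 from percent inhibition.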

Sequence of BACE1 (P56817 46-501, species assumed): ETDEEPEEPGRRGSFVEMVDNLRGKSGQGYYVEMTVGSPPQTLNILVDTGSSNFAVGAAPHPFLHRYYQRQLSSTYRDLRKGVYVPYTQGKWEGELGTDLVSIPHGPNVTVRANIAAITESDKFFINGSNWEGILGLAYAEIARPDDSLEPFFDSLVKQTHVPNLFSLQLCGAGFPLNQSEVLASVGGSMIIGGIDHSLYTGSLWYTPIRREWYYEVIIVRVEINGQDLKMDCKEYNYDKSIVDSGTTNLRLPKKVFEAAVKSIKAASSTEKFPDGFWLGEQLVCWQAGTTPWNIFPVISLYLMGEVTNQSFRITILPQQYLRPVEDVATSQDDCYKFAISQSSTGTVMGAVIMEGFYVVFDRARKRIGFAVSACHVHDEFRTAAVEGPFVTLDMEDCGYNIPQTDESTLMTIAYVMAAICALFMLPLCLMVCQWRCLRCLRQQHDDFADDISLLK

pIC50 (BACE1) | pIC50 ([1]; Homo sapiens, HEK293, 24 h) | pIC50 [1] | SMILES
6.65 | 5.98 | – | C=CC[C@H](NC(=O)c1cocn1)[C@H](O)CN[C@H]1CC2(CCC2)Oc2ncc(CC(C)(C)C)cc21 [Example 129, N-((1S)-1-((1R)-2-(((4′S)-6′-(2,2-dimethylpropyl)-3′,4′-dihydrospiro[cyclobutane-1,2′-pyrano[2,3-b]pyridin]-4′-yl)amino)-1-hydroxyethyl)-3-buten-1-yl)-1,3-oxazole-4-carboxamide]
7.03 | 6.72 | – | C=CC[C@H](NC(=O)c1ccns1)[C@H](O)CN[C@H]1CC2(CCC2)Oc2ncc(CC(C)(C)C)cc21 [Example 130, N-((1S)-1-((1R)-2-(((4′S)-6′-(2,2-dimethylpropyl)-3′,4′-dihydrospiro[cyclobutane-1,2′-pyrano[2,3-b]pyridin]-4′-yl)amino)-1-hydroxyethyl)-3-buten-1-yl)-5-isothiazolecarboxamide]
6.43 | 7.19 | – | C=CC[C@H](NC(=O)c1cncn1C)[C@H](O)CN[C@H]1CC2(CCC2)Oc2ncc(CC(C)(C)C)cc21 [Example 131, N-((1S)-1-((1R)-2-(((4′S)-6′-(2,2-dimethylpropyl)-3′,4′-dihydrospiro[cyclobutane-1,2′-pyrano[2,3-b]pyridin]-4′-yl)amino)-1-hydroxyethyl)-3-buten-1-yl)-1-methyl-1H-imidazole-5-carboxamide]
6.52 | 6.38 | – | C=CC[C@H](NC(=O)c1ccn(C)n1)[C@H](O)CN[C@H]1CC2(CCC2)Oc2ncc(CC(C)(C)C)cc21 [Example 132, N-((1S)-1-((1R)-2-(((4′S)-6′-(2,2-dimethylpropyl)-3′,4′-dihydrospiro[cyclobutane-1,2′-pyrano[2,3-b]pyridin]-4′-yl)amino)-1-hydroxyethyl)-3-buten-1-yl)-1-methyl-1H-pyrazole-3-carboxamide]
6.97 | 6.78 | – | C=CC[C@H](NC(=O)c1nccs1)[C@H](O)CN[C@H]1CC2(CCC2)Oc2ncc(CC(C)(C)C)cc21 [Example 133, N-((1S)-1-((1R)-2-(((4′S)-6′-(2,2-dimethylpropyl)-3′,4′-dihydrospiro[cyclobutane-1,2′-pyrano[2,3-b]pyridin]-4′-yl)amino)-1-hydroxyethyl)-3-buten-1-yl)-1,3-thiazole-2-carboxamide]
6.89 | 6.18 | – | C=CC[C@H](NC(=O)c1cscn1)[C@H](O)CN[C@H]1CC2(CCC2)Oc2ncc(CC(C)(C)C)cc21 [Example 134, N-((1S)-1-((1R)-2-(((4′S)-6′-(2,2-dimethylpropyl)-3′,4′-dihydrospiro[cyclobutane-1,2′-pyrano[2,3-b]pyridin]-4′-yl)amino)-1-hydroxyethyl)-3-buten-1-yl)-1,3-thiazole-4-carboxamide]
6.86 | 5.89 | – | C=CC[C@H](NC(=O)c1csc(F)c1)[C@H](O)CN[C@H]1CC2(CCC2)Oc2ncc(CC(C)(C)C)cc21 [Example 135, N-((1S)-1-((1R)-2-(((4′S)-6′-(2,2-dimethylpropyl)-3′,4′-dihydrospiro[cyclobutane-1,2′-pyrano[2,3-b]pyridin]-4′-yl)amino)-1-hydroxyethyl)-3-buten-1-yl)-5-fluoro-3-thiophenecarboxamide]
7.43 | 6.47 | – | C=CC[C@H](NC(=O)C(C)(F)F)[C@H](O)CN[C@H]1CC2(CCC2)Oc2ncc(CC(C)(C)C)cc21 [Example 136, N-((1S)-1-((1R)-2-(((4′S)-6′-(2,2-dimethylpropyl)-3′,4′-dihydrospiro[cyclobutane-1,2′-pyrano[2,3-b]pyridin]-4′-yl)amino)-1-hydroxyethyl)-3-buten-1-yl)-2,2-difluoropropanamide]
7.10 | 6.20 | – | C=CC[C@H](NC(=O)[C@@H](F)C(F)(F)F)[C@H](O)CN[C@H]1CC2(CCC2)Oc2ncc(CC(C)(C)C)cc21 [Example 137, (2R)-N-((1S)-1-((1R)-2-(((4′S)-6′-(2,2-dimethylpropyl)-3′,4′-dihydrospiro[cyclobutane-1,2′-pyrano[2,3-b]pyridin]-4′-yl)amino)-1-hydroxyethyl)-3-buten-1-yl)-2,3,3,3-tetrafluoropropanamide]
6.94 | 6.71 | – | C=CC[C@H](NC(=O)[C@H](F)C(F)(F)F)[C@H](O)CN[C@H]1CC2(CCC2)Oc2ncc(CC(C)(C)C)cc21 [Example 138, (2S)-N-((1S)-1-((1R)-2-(((4′S)-6′-(2,2-dimethylpropyl)-3′,4′-dihydrospiro[cyclobutane-1,2′-pyrano[2,3-b]pyridin]-4′-yl)amino)-1-hydroxyethyl)-3-buten-1-yl)-2,3,3,3-tetrafluoropropanamide]
6.70 | 6.56 | – | C=CC[C@H](NC(=O)[C@H]1CC1(F)F)[C@H](O)CN[C@H]1CC2(CCC2)Oc2ncc(CC(C)(C)C)cc21 [Example 139, (1R)-N-((1S)-1-((1R)-2-(((4′S)-6′-(2,2-dimethylpropyl)-3′,4′-dihydrospiro[cyclobutane-1,2′-pyrano[2,3-b]pyridin]-4′-yl)amino)-1-hydroxyethyl)-3-buten-1-yl)-2,2-difluorocyclopropanecarboxamide]
6.42 | 6.48 | – | C=CC[C@H](NC(=O)[C@@H]1CC1(F)F)[C@H](O)CN[C@H]1CC2(CCC2)Oc2ncc(CC(C)(C)C)cc21 [Example 140, (1S)-N-((1S)-1-((1R)-2-(((4′S)-6′-(2,2-dimethylpropyl)-3′,4′-dihydrospiro[cyclobutane-1,2′-pyrano[2,3-b]pyridin]-4′-yl)amino)-1-hydroxyethyl)-3-buten-1-yl)-2,2-difluorocyclopropanecarboxamide]
6.02 | 6.32 | – | C=CC[C@H](NC(=O)C(C)(C)F)[C@H](O)CN[C@H]1CC2(CCC2)Oc2ncc(CC(C)(C)C)cc21 [Example 141, N-((1S)-1-((1R)-2-(((4′S)-6′-(2,2-dimethylpropyl)-3′,4′-dihydrospiro[cyclobutane-1,2′-pyrano[2,3-b]pyridin]-4′-yl)amino)-1-hydroxyethyl)-3-buten-1-yl)-2-fluoro-2-methylpropanamide]
7.48 | 5.81 | – | C=CC[C@H](NC(=O)[C@@H](F)c1ccccc1)[C@H](O)CN[C@H]1CC2(CCC2)Oc2ncc(CC(C)(C)C)cc21 [Example 142, (2S)-N-((1S)-1-((1R)-2-(((4′S)-6′-(2,2-dimethylpropyl)-3′,4′-dihydrospiro[cyclobutane-1,2′-pyrano[2,3-b]pyridin]-4′-yl)amino)-1-hydroxyethyl)-3-buten-1-yl)-2-fluoro-2-phenylethanamide]
5.54 | 6.27 | – | C=CC[C@H](NC(=O)[C@H](F)c1ccccc1)[C@H](O)CN[C@H]1CC2(CCC2)Oc2ncc(CC(C)(C)C)cc21 [Example 143, (2R)-N-((1S)-1-((1R)-2-(((4′S)-6′-(2,2-dimethylpropyl)-3′,4′-dihydrospiro[cyclobutane-1,2′-pyrano[2,3-b]pyridin]-4′-yl)amino)-1-hydroxyethyl)-3-buten-1-yl)-2-fluoro-2-phenylethanamide]
6.46 | 5.95 | – | C=CC[C@H](NC(=O)COC(C)(C)C)[C@H](O)CN[C@H]1CC2(CCC2)Oc2ncc(CC(C)(C)C)cc21 [Example 144, 2-((1,1-dimethylethyl)oxy)-N-((1S)-1-((1R)-2-(((4′S)-6′-(2,2-dimethylpropyl)-3′,4′-dihydrospiro[cyclobutane-1,2′-pyrano[2,3-b]pyridin]-4′-yl)amino)-1-hydroxyethyl)-3-buten-1-yl)acetamide]
7.11 | 6.52 | – | C=CC[C@H](NC(=O)COC(C)C)[C@H](O)CN[C@H]1CC2(CCC2)Oc2ncc(CC(C)(C)C)cc21 [Example 145, N-((1S)-1-((1R)-2-(((4′S)-6′-(2,2-dimethylpropyl)-3′,4′-dihydrospiro[cyclobutane-1,2′-pyrano[2,3-b]pyridin]-4′-yl)amino)-1-hydroxyethyl)-3-buten-1-yl)-2-((1-methylethyl)oxy)acetamide]
6.25 | 6.61 | – | C=CC[C@H](NC(=O)[C@@H](CC)OC)[C@H](O)CN[C@H]1CC2(CCC2)Oc2ncc(CC(C)(C)C)cc21 [Example 146, (2R)-N-((1S)-1-((1R)-2-(((4′S)-6′-(2,2-dimethylpropyl)-3′,4′-dihydrospiro[cyclobutane-1,2′-pyrano[2,3-b]pyridin]-4′-yl)amino)-1-hydroxyethyl)-3-buten-1-yl)-2-(methyloxy)butanamide]
7.02 | 6.38 | – | C=CC[C@H](NC(=O)[C@H](CC)OC)[C@H](O)CN[C@H]1CC2(CCC2)Oc2ncc(CC(C)(C)C)cc21 [Example 147, (2S)-N-((1S)-1-((1R)-2-(((4′S)-6′-(2,2-dimethylpropyl)-3′,4′-dihydrospiro[cyclobutane-1,2′-pyrano[2,3-b]pyridin]-4′-yl)amino)-1-hydroxyethyl)-3-buten-1-yl)-2-(methyloxy)butanamide]
7.15 | – | 6.92 | C=CC[C@H](NC(=O)[C@@H](C)F)[C@H](O)CN[C@H]1CC2(CCC2)Oc2ncc(CC(C)(C)C)cc21.C=CC[C@H](NC(=O)[C@H](C)F)[C@H](O)CN[C@H]1CC2(CCC2)Oc2ncc(CC(C)(C)C)cc21 [Example 148, (2R)-N-((1S)-1-((1R)-2-(((4′S)-6′-(2,2-dimethylpropyl)-3′,4′-dihydrospiro[cyclobutane-1,2′-pyrano[2,3-b]pyridin]-4′-yl)amino)-1-hydroxyethyl)-3-buten-1-yl)-2-fluoropropanamide; (2S)-N-((1S)-1-((1R)-2-(((4′S)-6′-(2,2-dimethylpropyl)-3′,4′-dihydrospiro[cyclobutane-1,2′-pyrano[2,3-b]pyridin]-4′-yl)amino)-1-hydroxyethyl)-3-buten-1-yl)-2-fluoropropanamide]
